# Experimental data published in patent publication US20090306060A1 (priority 2004, published 2009).
# Read-outs that look alike come from different tables or passages of the source.
# Tested on: hybrid corn varieties
# Assay type: in vivo
# Details: for GY BU (2) (Grain Yield in bushels) / PC # (1): IFSA Inbred FR-A
# [1] = Fludioxonil 3.5 GA/100 Kg seed, Azoxystrobin 1 GA/100 Kg seed
# [2] = IFSA Inbred FR-C, Fludioxonil 3.5 GA/100 Kg seed, Azoxystrobin 1 GA/100 Kg seed
# [3] = IFSA Inbred FR-D, Fludioxonil 3.5 GA/100 Kg seed, Azoxystrobin 1 GA/100 Kg seed
# [4] = IFSA Inbred FR-F, Fludioxonil 3.5 GA/100 Kg seed, Azoxystrobin 1 GA/100 Kg seed
# [5] = IFSA Inbred FR-G, Fludioxonil 3.5 GA/100 Kg seed, Azoxystrobin 1 GA/100 Kg seed
# [6] = IFSA Inbred W-A, Fludioxonil 3.5 GA/100 Kg seed, Azoxystrobin 1 GA/100 Kg seed
# [7] = IFSA Inbred W-B, Fludioxonil 3.5 GA/100 Kg seed, Azoxystrobin 1 GA/100 Kg seed
# [8] = IFSA Inbred FR-C, Fludioxonil 2.5 GA/100 Kg seed
# [9] = IFSA Inbred FR-D, Fludioxonil 2.5 GA/100 Kg seed
# [10] = IFSA Inbred FR-F, Fludioxonil 2.5 GA/100 Kg seed
# [11] = IFSA Inbred FR-G, Fludioxonil 2.5 GA/100 Kg seed
# [12] = IFSA Inbred W-A, Fludioxonil 2.5 GA/100 Kg seed
# [13] = IFSA Inbred W-B, Fludioxonil 2.5 GA/100 Kg seed
Compound,GY BU (2) (Grain Yield in bushels) [1],PC # (1) [1],GY BU [2],PC # [2],GY BU [3],PC # [3],GY BU [4],PC # [4],GY BU [5],PC # [5],GY BU [6],PC # [6],GY BU [7],PC # [7],also measured
"CO/C=C(/C(=O)OC)c1ccccc1Oc1cc(Oc2ccccc2C#N)ncn1 [Azoxystrobin, azoxystrobin]",168 a BU,23232 a,187 ab BU,24086 ab,193 a BU,23574 a,179 b BU,18107 bc,89 a BU,13153 a,173 ab BU,19645 a,204 a BU,23574 ab,
"N#Cc1c[nH]cc1-c1cccc2c1OC(F)(F)O2 [Fludioxonil, fludioxonil]",180 a BU,23744 a,176 b BU,23915 ab,185 a BU,24599 a,225 a BU,24428 a,85 a BU,11787 ab,180 ab BU,19986 a,204 a BU,22036 b,GY BU (2) (Grain Yield in bushels) (Fludioxonil 2.5 GA/100 Kg seed): 181 a BU; PC # (1) (Fludioxonil 2.5 GA/100 Kg seed): 23403 a; GY BU [8]: 198 a BU; PC # [8]: 24428 a; GY BU [9]: 184 a BU; PC # [9]: 23574 a; GY BU [10]: 183 b BU; PC # [10]: 19986 b; GY BU [11]: 83 a BU; PC # [11]: 13495 a; GY BU [12]: 172 ab BU; PC # [12]: 19474 a; GY BU [13]: 215 a BU; PC # [13]: 24599 a
